Like-named read-outs stand apart in the source and are kept apart here.
Legend:
ovine COX-1 (oCOX-1) = molecular target: T1, ovine COX-1 (oCOX-1) (Ovis aries, UniProt P05979); test: LCMS-based COX-1 enzymatic inhibition assay (PGE2 quantification); type: biochemical; conditions: 10 minutes
T1 construct: purchased Cayman Chemicals (Ann Arbor, Mich.)
T1 sequence (P05979 25-600): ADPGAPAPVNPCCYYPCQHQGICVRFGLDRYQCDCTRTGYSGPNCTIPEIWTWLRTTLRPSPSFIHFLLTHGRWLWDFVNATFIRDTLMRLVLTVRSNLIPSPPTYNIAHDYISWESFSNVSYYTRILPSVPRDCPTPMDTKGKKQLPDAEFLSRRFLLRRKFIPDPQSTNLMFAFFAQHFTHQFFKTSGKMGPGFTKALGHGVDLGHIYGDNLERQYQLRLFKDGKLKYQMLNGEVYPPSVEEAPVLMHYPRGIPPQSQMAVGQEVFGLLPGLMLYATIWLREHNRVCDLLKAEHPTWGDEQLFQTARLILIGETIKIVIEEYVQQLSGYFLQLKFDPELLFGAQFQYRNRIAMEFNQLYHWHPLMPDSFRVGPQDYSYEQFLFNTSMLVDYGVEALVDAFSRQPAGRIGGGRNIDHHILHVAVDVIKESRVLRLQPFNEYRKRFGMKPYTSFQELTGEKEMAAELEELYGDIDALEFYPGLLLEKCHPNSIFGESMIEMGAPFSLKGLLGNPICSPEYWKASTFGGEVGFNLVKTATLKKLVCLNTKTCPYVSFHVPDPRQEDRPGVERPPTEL
Outline: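 Ovine COX-1 (0.1 μg) or human recombinant COX2 (0.2 μg) in 100 mM Tris.HCl pH 8.0 with hematin and epinephrine, preincubated with inhibitor 10 min at 37 °C. Reaction with 5 μM arachidonic acid stopped after 2 min with HCl; PGE2 quantified by LC-MS-MS. IC50 from 12 concentrations in triplicate.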

[1] = in-vitro protein binding: free fraction / fraction unbound, matrix and species not given; type: in vitro ADME; conditions: compared to MC1; comparator not always stated
Procedure: (§1) We have adapted a previously reported cyclooxygenase enzymatic assay utilizing LCMS quantification of PGE2 as the product of COX-1 and COX2 catalyzed conversion of arachidonic acid to evaluate the binding properties of newly synthesized ligands [Cao, 2011]. These optimized and miniaturized (384-well plates) LCMS-based COX-1 and COX2 enzymatic assays enabled us to quickly evaluate newly synthesized ligands for COX2 binding affinity and selectivity vs COX-1. Using a shorter ligand-enzyme incubation time in the LCMS assay (2 minutes vs 10 minutes) also permitted us to prioritize ligands with faster binding kinetics. Considering the relatively slow on-rate kinetics of known coxibs, due to their 3-step binding mechanism [Marnett, 2009], we believe that optimizing this critical parameter will be key to the successful development of a COX2 PET tracer. Using these enzymatic assays, we have evaluated>200 newly synthesized ligands against COX2 and >20 ligands against COX-1. Another critical property necessary for a good PET radiotracer is to have low non-specific binding (NSB) to increase the free fraction and maximize the signal to noise ratio. This property can be evaluated using in-vitro protein binding assays, and we have now evaluated>50 newly synthesized ligands in mouse, rat and human plasma protein binding (PPB) assays as well as >15 ligands in a mouse brain protein binding (BPB) assay.

[2] = mouse brain protein binding (BPB) assay; type: in vitro ADME
Procedure: as §1

MDR1 = test: MDR1-MDCKII permeability and efflux; type: in vitro ADME; conditions: dog, MDCK-MDR1; for Papp A→B: read-out: MDR1-MCKII Papp A-B; for Papp B→A: read-out: MDR1-MCKII Papp B-A
Rat Microsome Stability = type: in vitro ADME; conditions: rat microsomes
[3] = human plasma protein binding (PPB) assay; type: in vitro ADME; conditions: average, read-out: Human Plasma Protein Binding % Bound Avg (converted)
Procedure: as §1

[4] = rat plasma protein binding (PPB) assay; type: in vitro ADME; conditions: average, read-out: Rat Plasma Protein Binding % Bound Avg (converted)
Outline: (§2)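 Plasma (mouse, rat, human) and mouse brain protein binding were run in vitro, with the free fraction as the endpoint.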

[5] = Rat Plasma Protein Stability (% Remaining); type: in vitro ADME; conditions: average
[6] = mouse plasma protein binding (PPB) assay; type: in vitro ADME; conditions: average, read-out: Mouse Plasma Protein Binding % Bound Avg (converted)
Outline: as §2

[7] = Mouse Plasma Protein Stability (% Remaining); type: in vitro ADME; conditions: average
[8] = Human Plasma Protein Stability (% Remaining); type: in vitro ADME; conditions: average
[9] = readout pge2/pge2d4 area ratio, average, read-out: COX1 10 minutes pge2/pge2d4 area ratio Avg. IC50

Row | SMILES | COX1 10 minutes pge2/pge2d4 area ratio Avg. LLE (ovine COX-1 (oCOX-1); pge2/pge2d4 area ratio, head of this section not shown, inferred) | COX1 10 minutes pge2 area (counts) Avg. LLE (ovine COX-1 (oCOX-1); pge2 area (counts), head of this section not shown, inferred) | IC50 (ovine COX-1 (oCOX-1); pge2 area (counts), head of this section not shown, inferred, read-out: COX1 10 minutes pge2 area (counts) Avg. IC50) [µM] | IC50 (ovine COX-1 (oCOX-1); [9]) [µM] | improvement in free fraction (fraction unbound) [1] [fold] | fraction unbound [2] | efflux ratio (MDR1) | Papp A→B (MDR1) [×10⁻⁶ cm/s] | Papp B→A (MDR1) [×10⁻⁶ cm/s] | Rat Microsome Stability % Remaining Avg (Rat Microsome Stability) [%] | fraction unbound [3] | fraction unbound [4] | Rat Plasma Protein Stability % Remaining Avg [5] [%] | fraction unbound [6] | IC50 (ovine COX-1 (oCOX-1); readout pge2 area (counts), average, read-out: COX1 10 minutes pge2 area (counts) Avg. IC50) [µM] | Mouse Plasma Protein Stability % Remaining Avg [7] [%] | Human Plasma Protein Stability % Remaining Avg [8] [%] | COX1 10 minutes pge2/pge2d4 area ratio Avg. LLE (ovine COX-1 (oCOX-1); readout pge2/pge2d4 area ratio, average LLE)
1 | CS(=O)(=O)c1ccc(-c2cncc(NCc3cccs3)n2)cc1 [Compound 98] | 2.943 | 2.879 | 10.7 | 9.89 | 3 | 0.02 | 1.7 | 49.7 | 83.8 | 20.3 |  |  |  |  |  |  |  | 
2 | CS(=O)(=O)c1ccc(-c2cccc(NCc3ccco3)n2)cc1 [Compound 36] |  |  |  | 36.4 | ~4 | 0.019 | 1 | 68.5 | 67.9 | 11.6 | 0.091 | 0.087 | 102.8 | 0.118 | 29.7 | 106 | 100 | 
3 | CS(=O)(=O)c1ccc(-c2cccc(NCc3ccoc3)n2)cc1 [Compound 47, N-(furan-3-ylmethyl)-6-(4-(methylsulfonyl)phenyl)pyridin-2-amine] |  |  |  | 38.8 | ~4 | 0.022 | 0.9 | 50.8 | 47.2 | 8.2 | 0.071 | 0.068 | 105.1 | 0.07 |  | 107.5 | 102.5 | 1.461
